This experiment has as its target T1, Human FAAH (Homo sapiens, UniProt O00519).
T1 construct: The full length FAAH was subcloned into the mammalian expression vector, peDEF.neo
T1 sequence (O00519 1-579): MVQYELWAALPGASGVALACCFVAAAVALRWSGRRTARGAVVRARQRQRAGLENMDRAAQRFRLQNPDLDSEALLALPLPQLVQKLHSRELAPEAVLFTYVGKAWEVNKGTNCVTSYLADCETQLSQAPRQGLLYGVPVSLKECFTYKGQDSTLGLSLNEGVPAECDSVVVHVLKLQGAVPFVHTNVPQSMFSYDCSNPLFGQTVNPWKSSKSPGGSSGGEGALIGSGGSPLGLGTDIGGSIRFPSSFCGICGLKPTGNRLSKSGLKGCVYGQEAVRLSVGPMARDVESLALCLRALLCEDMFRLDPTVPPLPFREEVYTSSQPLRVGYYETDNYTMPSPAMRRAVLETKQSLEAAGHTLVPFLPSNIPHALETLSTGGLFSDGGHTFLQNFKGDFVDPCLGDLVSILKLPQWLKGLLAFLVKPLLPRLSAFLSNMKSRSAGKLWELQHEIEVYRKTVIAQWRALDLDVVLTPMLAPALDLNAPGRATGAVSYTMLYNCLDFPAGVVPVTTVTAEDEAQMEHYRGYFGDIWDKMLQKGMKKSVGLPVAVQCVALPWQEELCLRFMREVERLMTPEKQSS
The experiment can be described thus: Human FAAH lysate assay (CHO cell lysate expressing FAAH, AAMCA or 3H-anandamide hydrolysis). The experiment is classed as biochemical. The source says: To assist in assay development stable cell lines for human, murine and rat full length FAAH were developed. […] The full length FAAH was subcloned into the mammalian expression vector, peDEF.neo, using XbaI and EcoRI restriction sites and used for stable cell line generation.
CHO cells expressing FAAH were used to prepare either crude cell lysate or microsome fractions. To harvest cells, tissue culture media was decanted, the monolayer washed three times with Ca^++Mg^++ free PBS and cells recovered after […] in enzyme free dissociation media (Millipore Corp, Billerica, Mass.). Cells were collected by centrifuging at 2000 rpm for 15 min. and the cell pellet re-suspended with 50 mM HEPES (pH 7.4) containing 1 mM EDTA and the protease inhibitors aprotinin (1 mg/ml) and leupeptin (100 μM). The suspension was sonicated at 4° C. and the cell lysate recovered after centrifuging at 12,000×g (14,600 rpm, SS34 rotor) for 20 min at 4° C. to form a crude pellet of cell debris, nuclei, peroxisomes, lysosomes, and mitochondria; the supernatant or cell lysate was used for FAAH enzyme assay. In some cases, microsomes fractions enriched in FAAH were prepared by centrifuging the cell lysate further at 27,000 rpm (100,000×g) in SW28 rotor for 50 minutes at 4° C. The pellet containing FAAH-enriched microsomes was re-suspend in 50 mM HEPES, (pH 7,4) 1 mM EDTA, and any remaining DNA sheared by passage of material through a 23 gauge needle and aliquots of enzyme were store at −80° C. prior to use.
Assays are performed on either cell lysate or microsome fractions prepared as described or in whole cell format employing either the fluorescent substrate AAMCA (Cayman chemical, Ann Arbor, Mich.,) or ^3H-anandamide ([ETHANOLAMINE-1-3H] American Radiolabeled Chemicals; 1 mCi/ml). The cell lysate or microsome assay is performed in Costar black wall, clear bottom plates by adding FAAH_CHO (whole cell, cell lysate or microsome) in assay buffer (50 mM Phosphate, pH 8.0, 1 mM EDTA, 200 mM KCl, 0.2% glycerol, 0.1% fatty acid free BSA) to each well, followed by either DMSO or compound and allowed to incubate at 22-25° C. for fifteen minutes. AAMCA substrate was used to achieve a final concentration of 1 μM and reaction allowed to proceed at room temperature for 1-3 hours. […] Whole cell assay is conducted with cells harvested after rinsing tissue culture flasks three times with Ca^++Mg^++ free PBS, incubating for 10 mm in Enzyme free dissociation media and centrifuging for 5 minutes at 1,000 rpm in table top centrifuge. Cells are resuspended in assay buffer at desired cell number in (4×10^4 cells/assay in 96-well format; 1×10^4 cells/assay in 384-well format) and assayed as described.
Alternatively, assays are performed using anandamide [ethanolamine 1-^3H] (specific activity of 10 Ci/mmol) diluted with cold anandamide to achieve a final assay concentration of 1 μM anandamide (˜50,000 cpm). Enzyme (CHO cell lysate, brain or liver homogenate) is incubated in assay buffer (50 mM Phosphate, pH 8.0, 1 mM EDTA, 200 mM KCl, 0.2% glycerol, 0.1% fatty acid free BSA) with inhibitor at 25° C. for 30 minutes. The reaction was terminated by addition of 2 volumes of chloroform:methanol (1:1) and mixed by vortexing. Following a centrifugation step, 2000 rpm for 10 min. at room temperature, the aqueous phase containing the released […] was recovered and quantitated by liquid scintillation as a reflection of FAAH enzyme activity.

The mark [1] stands for this setting: B series, read-out: Human FAAH lysate assay: IC50.
Setting [2] is: tables of the B series, read-out: hFAAH lysate IC50.

Structures can show the parent of a compound that is named as a salt. Where two headings read alike, the source gives them in different places.

For `Cn1cnc(-c2ccc([C@H]3C[C@@H]3c3n[nH]c(=S)o3)cc2)c1Sc1ccc(Cl)cn1` [Example 31B, 5-[(1S,2S)-2-(4-{5-[(5-chloropyridin-2-yl)thio]-1-methyl-1H-imidazol-4-yl}phenyl)cyclopropyl]-1,3,4-oxadiazole-2(3H)-thione], the IC50 (in general, the concentration at which inhibition is half-maximal) under setting [1] was 677 nM.

`Cn1cnc(-c2ccc([C@H]3C[C@@H]3c3n[nH]c(=O)o3)cc2)c1Sc1ccc(Cl)cc1F` [Example 42B]: the half-inhibitory concentration (IC50) under setting [2] came to 1.8 nM.

Consider `CNC(=O)[C@H]1C[C@@H]1c1ccc(-c2ncn(CCF)c2Sc2ccc(Cl)cn2)cc1` [Example 15B], for which the IC50 under setting [2] was 5.8 nM.

Turning to `Cn1cnc(-c2ccc([C@H]3C[C@@H]3C(=O)NCCF)cc2)c1Sc1ccc(Cl)cn1` [Example 1013, (1S,2S)-2-(4-{5-[(5-Chloropyridin-2-yl)thio]-1-methyl-1H-imidazol-4-yl}phenyl)-N-(2-fluoroethyl)cyclopropanecarboxamide], the concentration for half-maximal inhibition (IC50) under setting [1] amounted to 1.5 nM.

Regarding `Cn1nnc([C@H]2C[C@@H]2c2ccc(-c3ncn(C)c3Sc3ccc(Cl)cn3)cc2)n1` [Example 38B, 5-chloro-2-[(1-methyl-4-{4-[(1 S,2S)-2-(2-methyl-2H-tetrazol-5-yl)cyclopropyl]phenyl}-1H-imidazol-5-yl)thio]pyridine], the IC50 under setting [1] came to 37 nM.

With `COC(=O)[C@H]1C[C@@H]1c1ccc(-c2ncn(C)c2Sc2ccc(Cl)cn2)cc1` [Example 21B, Methyl (1S,2S)-2-(4-{5-[(5-chloropyridin-2-yl)thio]-1-methyl-1H-imidazol-4-yl}phenyl)cyclopropanecarboxylate], under setting [1], the IC50 came to 0.2 nM.

Consider `CN(C)C(=O)[C@H]1C[C@@H]1c1ccc(-c2ncn(C)c2Sc2ccc(Cl)cn2)cc1` [Example 5B, (1S,2S)-2-(4-{5-[(5-Chloropyridin-2-yl)thio]-1-methyl-1H-imidazol-4-yl}phenyl)-N,N-dimethylcyclopropanecarboxamide], for which the IC50 under setting [1] was 1 nM.

Consider `Cn1cnc(-c2ccc([C@H]3C[C@@H]3c3n[nH]c(=O)o3)cc2)c1Sc1ccc(Cl)cc1` [Example 39B], for which the IC50 under setting [2] came to 24 nM.

`Cn1cnc(-c2ccc([C@H]3C[C@@H]3c3ncon3)cc2)c1Sc1ccc(Cl)cn1` [Example 35B, 5-chloro-2-[(1-methyl-4-{4-[(1S,2S)-2-(1,2,4-oxadiazol-3-yl)cyclopropyl]phenyl}-1H-imidazol-5-yl)thio]pyridine]: the IC50 under setting [1] was determined as 58.4 nM.

For the compound `CN(C)C(=O)[C@H]1C[C@@H]1c1ccc(-c2nc[nH]c2Sc2ccc(Cl)cn2)cc1` [Example 20B, (1S,2S)-2-(4-{5-[(5-Chloropyridin-2-yl)thio]-1H-imidazol-4-yl}phenyl)-N,N-dimethylcyclopropanecarboxamide], the IC50 under setting [1] came to 650 nM.

As to `Cn1cnc(-c2ccc([C@H]3C[C@@H]3CO)cc2)c1Sc1ccc(Cl)cn1` [Example 23B, [(1S,2S)-2-(4-{5-[(5-Chloropyridin-2-yl)thio]-1-methyl-1H-imidazol-4-yl}phenyl)cyclopropyl]methanol], the half-maximal inhibitory concentration (IC50) under setting [1] came to 88.4 nM.

In the case of `COc1cnc(Sc2c(-c3ccc([C@H]4C[C@@H]4c4n[nH]c(=O)o4)cc3)ncn2C)nc1` [Example 40B], the IC50 under setting [2] is 33 nM.

As for `Cn1cnc(-c2ccc([C@H]3C[C@@H]3c3nn(C)c(=O)o3)cc2)c1Sc1ccc(Cl)cn1` [Example 3013, 5-[(1S,2S)-2-(4-{5-[(5-chloropyridin-2-yl)thio]-1-methyl-1H-imidazol-4-yl}phenyl)cyclopropyl]-3-methyl-1,3,4-oxadiazol-2(3H)-one], under setting [1], the concentration for half-maximal inhibition (IC50) stood at 171 nM.

In the case of `NC(=O)[C@H]1C[C@@H]1c1ccc(-c2ncn(CCF)c2Sc2ccc(Cl)cn2)cc1` [Example 16B], the IC50 under setting [2] was found to be 12.7 nM.

For the compound `Cn1cnc(-c2ccc([C@H]3C[C@@H]3c3nn[nH]n3)cc2)c1Sc1ccc(Cl)cn1` [Example 37B, 5-[(5-chloropyridin-2-yl)thio]-1-methyl-4-{4-[(1S,2S)-2-(2H-tetrazol-5-yl)cyclopropyl]phenyl}-1H-imidazol-3-ium trifluoroacetate], under setting [1], the half-inhibitory concentration (IC50) worked out at 167 nM.
